Test results from patent US20150238601A1, “TREATMENT OF OCULAR DISORDERS” (KADMON CORPORATION, LLC, priority 2012, published 2015).
Structures can show the parent of a compound that is named as a salt. Where two headings read alike, the source gives them in different places. One block for each compound: values may come before it.

What was measured:
ROCK1 [1] = target: T1, ROCK1 (Homo sapiens, UniProt Q13464); assay: Invitrogen Z'-LYTE Kinase Assay; format: biochemical; parameters: purchased Invitrogen PV3691; conditions: 5 uM ATP, ROCK1 0.18 ug/mL
T1 sequence (Q13464 whole entry): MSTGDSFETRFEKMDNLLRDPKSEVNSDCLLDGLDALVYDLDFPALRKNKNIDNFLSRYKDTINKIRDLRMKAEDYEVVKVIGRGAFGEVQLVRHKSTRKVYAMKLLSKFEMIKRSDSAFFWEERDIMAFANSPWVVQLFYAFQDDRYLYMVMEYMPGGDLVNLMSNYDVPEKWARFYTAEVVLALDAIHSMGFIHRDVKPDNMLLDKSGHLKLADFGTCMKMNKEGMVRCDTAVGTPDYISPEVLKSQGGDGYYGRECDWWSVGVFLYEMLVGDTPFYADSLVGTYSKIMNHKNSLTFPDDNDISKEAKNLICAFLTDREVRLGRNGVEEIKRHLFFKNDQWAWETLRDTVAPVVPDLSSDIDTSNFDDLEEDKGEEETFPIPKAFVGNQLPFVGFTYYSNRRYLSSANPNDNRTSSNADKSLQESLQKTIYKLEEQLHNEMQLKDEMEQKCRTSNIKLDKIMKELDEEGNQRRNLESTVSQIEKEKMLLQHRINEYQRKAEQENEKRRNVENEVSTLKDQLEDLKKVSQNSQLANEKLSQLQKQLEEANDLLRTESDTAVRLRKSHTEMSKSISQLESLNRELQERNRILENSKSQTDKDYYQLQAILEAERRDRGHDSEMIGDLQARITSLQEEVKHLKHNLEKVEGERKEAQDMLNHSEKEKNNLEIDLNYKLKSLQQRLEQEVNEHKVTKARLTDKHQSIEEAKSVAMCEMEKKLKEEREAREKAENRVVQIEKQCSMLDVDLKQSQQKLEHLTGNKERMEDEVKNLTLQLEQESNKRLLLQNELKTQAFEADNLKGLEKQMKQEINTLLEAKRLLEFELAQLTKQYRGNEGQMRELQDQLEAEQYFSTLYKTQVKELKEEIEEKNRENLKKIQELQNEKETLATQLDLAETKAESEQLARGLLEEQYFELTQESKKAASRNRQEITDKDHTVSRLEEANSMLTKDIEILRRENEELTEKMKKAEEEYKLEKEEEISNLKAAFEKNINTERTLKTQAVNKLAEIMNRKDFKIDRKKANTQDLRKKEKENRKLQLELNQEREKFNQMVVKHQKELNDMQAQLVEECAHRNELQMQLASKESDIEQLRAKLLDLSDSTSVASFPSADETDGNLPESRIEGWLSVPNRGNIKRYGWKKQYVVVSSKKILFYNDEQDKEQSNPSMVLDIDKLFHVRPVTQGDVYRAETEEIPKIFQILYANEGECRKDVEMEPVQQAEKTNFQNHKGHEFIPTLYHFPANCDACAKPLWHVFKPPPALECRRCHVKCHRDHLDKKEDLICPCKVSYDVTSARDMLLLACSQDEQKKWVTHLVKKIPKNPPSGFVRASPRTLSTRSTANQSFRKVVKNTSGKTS
Description: (§2) Dose response curves for Rho-kinase inhibition were derived from a Invitrogen Z′-LYTE™ Kinase Assay Kit (Invitrogen catalog number PV3793). Purified active ROCK1 and ROCK2 were obtained from Invitrogen (catalog numbers ROCK1, PV3691 and ROCK2, PV3759). The kit components include a coumarin and fluorescein labeled peptide based on myosin light chain 2 ([sequence]), a proprietary protease containing development reagent and a proprietary Stop buffer used to terminate the development reaction. The inhibitory activities of compounds are measured according to the manufactures protocol. […] The assay proceeds at room temperature for 1 hour followed by the addition of development reagent, and further incubation for 1 hour at room temperature. […] By comparing the emission ratios of the test samples against control samples, percent phosphorylation values are calculated and the concentration of inhibitor that produces 1/2 inhibition of kinase activity (IC50) is determined using Prism.

ROCK2 = target: T2, ROCK2 (Homo sapiens, UniProt O75116); assay: Invitrogen Z'-LYTE Kinase Assay; format: biochemical
T2 construct: purchased Invitrogen PV3759
T2 sequence (O75116 whole entry): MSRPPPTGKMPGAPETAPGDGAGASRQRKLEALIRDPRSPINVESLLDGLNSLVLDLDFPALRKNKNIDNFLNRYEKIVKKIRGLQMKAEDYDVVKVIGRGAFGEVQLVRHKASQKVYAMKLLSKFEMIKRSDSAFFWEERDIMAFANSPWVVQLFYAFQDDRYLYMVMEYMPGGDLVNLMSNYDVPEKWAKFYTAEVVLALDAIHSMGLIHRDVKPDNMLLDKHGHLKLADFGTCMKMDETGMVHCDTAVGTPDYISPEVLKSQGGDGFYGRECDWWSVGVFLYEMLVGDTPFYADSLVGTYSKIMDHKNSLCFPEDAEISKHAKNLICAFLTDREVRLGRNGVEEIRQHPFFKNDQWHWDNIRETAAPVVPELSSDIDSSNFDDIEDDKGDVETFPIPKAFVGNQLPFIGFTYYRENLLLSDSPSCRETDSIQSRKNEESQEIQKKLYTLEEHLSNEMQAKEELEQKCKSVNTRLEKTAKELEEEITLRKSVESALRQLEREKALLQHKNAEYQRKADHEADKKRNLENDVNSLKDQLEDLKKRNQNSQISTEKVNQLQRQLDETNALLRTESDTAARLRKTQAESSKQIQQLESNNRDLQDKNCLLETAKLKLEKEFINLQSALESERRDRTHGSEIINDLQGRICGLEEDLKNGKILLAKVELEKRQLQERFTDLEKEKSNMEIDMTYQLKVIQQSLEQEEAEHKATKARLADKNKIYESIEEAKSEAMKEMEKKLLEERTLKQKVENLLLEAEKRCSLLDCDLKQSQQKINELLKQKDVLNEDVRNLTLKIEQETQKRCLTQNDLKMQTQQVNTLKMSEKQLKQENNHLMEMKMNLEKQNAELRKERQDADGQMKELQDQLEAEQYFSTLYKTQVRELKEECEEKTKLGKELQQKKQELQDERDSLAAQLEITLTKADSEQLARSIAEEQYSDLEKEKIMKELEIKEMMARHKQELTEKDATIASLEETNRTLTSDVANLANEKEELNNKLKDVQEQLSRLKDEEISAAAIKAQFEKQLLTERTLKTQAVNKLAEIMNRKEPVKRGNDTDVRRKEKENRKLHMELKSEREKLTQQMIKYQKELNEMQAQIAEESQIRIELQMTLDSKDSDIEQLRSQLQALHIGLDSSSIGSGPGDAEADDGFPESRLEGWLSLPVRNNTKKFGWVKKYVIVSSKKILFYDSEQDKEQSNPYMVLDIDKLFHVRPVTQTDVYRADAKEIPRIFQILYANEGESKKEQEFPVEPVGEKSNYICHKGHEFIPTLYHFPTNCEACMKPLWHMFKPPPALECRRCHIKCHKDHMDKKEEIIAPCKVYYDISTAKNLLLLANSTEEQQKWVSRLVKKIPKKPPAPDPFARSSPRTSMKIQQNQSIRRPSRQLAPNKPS
Description: as §2

[2] = tested on: CD4+ T cells from peripheral blood of RA patients; assay: CD4+ T cells of RA patients stimulated with anti-CD3/CD28 ex vivo; format: cell-based, human
STAT3 phosphorylation = STAT3 phosphorylation in T cells; format: cell-based
Method: STAT3 plays a critical role in Th17 differentiation via regulation of RORγt expression and direct binding to the IL-17 and IL-21 promoters. […] In a different experiment, cells we cultured under Th17-skewing conditions for 5 days and then treated with the ROCK2 selective inhibitor for 3 hours.

CD4+ human T cells [3] = assay: cytokine secretion of anti-CD3/CD28 stimulated CD4+ T cells in vitro; format: cell-based; conditions: anti-CD3/CD28 stimulation
Description: (§1) Activation of resting T cells, resulting in cytokine secretion and proliferation, involves two distinct signals from antigen-presenting cells (APCs), mimicked by co-stimulation of the T cell receptor (TCR)/CD3 complex and the CD28 receptor.

CD4+ human T cells [4] = assay: T cell proliferation in response to TCR stimulation in vitro; format: cell-based
Description: as §1

[5] = tested on: subfoveal choroidal neovascularization (CNV) lesion secondary to AMD; assay: study in subjects with subfoveal CNV lesion secondary to AMD; format: in vivo, human; conditions: Example 43 with Mab 106 vs Mab 106, six months
Method: A study is conducted of 50 men and women having subfoveal choroidal neovascularization (CNV) lesion secondary to AMD. […] Subjects are observed over six months to determine intraocular inflammation, macular thickness, and the status of macular perfusion. Visual acuity is also measured over the time period.

ROCK1 [6] = target: T1, ROCK1; assay: biochemical
Method: Dose response curves for Rho-kinase inhibition were derived from a Millipore immuno-based 96 well plate assay (Millipore catalog number CSA001). Purified active ROCK1 and ROCK2 were obtained from Invitrogen (catalog numbers ROCKI, PV3691 and ROCK2, PV3759). The kit components include assay plates, which are pre-coated with recombinant MYPT1, which contains a specifically phosphorylatable Thr696. The inhibitory activities of compounds are measured according to the manufactures protocol. […] The assay proceeds at 300 Celsius for 30 minutes with gentle shaking at 120 rpm. The assay is terminated by washing of the plate 3 times with Tris-buffered saline and tween wash buffer. Anti-phospho-MYPT1 (Thr696) antibody is added to each well to detect the phosphorylated substrate and incubated for 1 hour at room temperature after which HRP conjugated anti-rabbit IgG secondary is added for 1 hour at room temperature. After washing the assay is developed using a substrate reagent and the absorbance is read at 450 nm on a Tecan Infinite M1000 reflecting the relative remaining ROCK phosphorylation activity.

[7] = tested on: proliferative diabetic retinopathy; assay: preoperative treatment of proliferative diabetic retinopathy / diabetic macular edema; format: in vivo, human; conditions: with pegaptanib, compared to pegaptanib alone, intravitreal, 8 weeks after surgery
Method: The agents are administered by intravitreal injection. Subjects are evaluated over 8 weeks following surgery as to post operative rebleed, macular edema post injection, and pre- and post-injection levels of VEGF165. It is expected that compared to pegaptanib alone, administration of compound 154 results in reduced bleeding and macular edema.

[8] = Z'-LYTE, 12 uM ATP, ROCK2 0.8 ug/mL, read-out: ROCK2 IC50
[9] = 2 RA patients, intracellular staining
[10] = RA patients, ex vivo, TCR stimulation

SMILES: c1cc(OCc2ccncc2)cc(-c2nccc(Nc3ccc4[nH]ncc4c3)n2)c1 [Example 136, N-(2-(3-(pyridin-4-ylmethoxy)phenyl)pyrimidin-4-yl)-1H-indazol-5-amine]
- IC50 (ROCK1 [1]): 170 nM

SMILES: CC(C)NC(=O)COc1cccc(-c2nc(Nc3ccc4[nH]ncc4c3)c3ccccc3n2)c1 [SLx-2119]
- frequency of IFN-γ-producing cells [2, 9]: significantly reduced
- frequency of IL-17-producing cells [2, 9]: significantly reduced
- IFN-γ secretion [2, 10]: significantly down-regulated
- IL-17 secretion [2, 10]: significantly down-regulated
- IL-21 secretion [2, 10]: significantly down-regulated
- phosphorylation of STAT3 (STAT3 phosphorylation; T cells pre-treated, then stimulated with anti-CD3/CD28 antibodies): reduced
- STAT3 phosphorylation (STAT3 phosphorylation; Th17-skewing conditions 5 days, then treated 3 hours): reduced
- IL-17 secretion (CD4+ human T cells [3]; dose-dependent): significantly inhibited
- IL-21 secretion (CD4+ human T cells [3]; dose-dependent): significantly inhibited
- inhibition of IFN-γ secretion (CD4+ human T cells [3]; high dose 10 μM): less robust and significant only at high dose
- ability of T cells to proliferate in response to TCR stimulation (CD4+ human T cells [4]): down-regulated

SMILES: O=C(Oc1cccc(-c2nccc(Nc3ccc4[nH]ncc4c3)n2)c1)N1CCOCC1 [Example 129, 3-(4-((1H-indazol-5-yl)amino)pyrimidin-2-yl)phenyl morpholine-4-carboxylate]
- IC50 (ROCK1 [1]): 1100 nM
- IC50 (ROCK2; [8]): 10 nM

SMILES: CC(C)NC(=O)COc1cccc(-c2ncc(OCCN(C)C)c(Nc3ccc4[nH]ncc4c3)n2)c1 [Example 43, 2-(3-(4-((1H-indazol-5-yl)amino)-5-(2-(dimethylamino)ethoxy)pyrimidin-2-yl)phenoxy)-N-isopropylacetamide TFA salt]
- intraocular inflammation [5]: less
- macular perfusion [5]: less
- IC50 (ROCK1 [1]): 750 nM
- IC50 (ROCK2; [8]): 25 nM

SMILES: CN(C)C(=O)Oc1cccc(-c2nccc(Nc3ccc4[nH]ncc4c3)n2)c1 [Example 131, 3-(4-((1H-indazol-5-yl)amino)pyrimidin-2-yl)phenyl dimethylcarbamate]
- IC50 (ROCK2): 39 nM

SMILES: CC(C)NC(=O)COc1cccc(-c2nc(Nc3ccc4[nH]ncc4c3)cc(N3CCCNCC3)n2)c1 [Example 121, 2-(3-(4-((1H-indazol-5-yl)amino)-6-(1,4-diazepan-1-yl)pyrimidin-2-yl)phenoxy)-N-isopropylacetamide]
- IC50 (ROCK1 [1]): 1390 nM
- IC50 (ROCK2; [8]): 13 nM

SMILES: O=C(COc1cccc(-c2nccc(Nc3ccc4[nH]ncc4c3)n2)c1)N[C@@H]1CCNC1 [Example 12, (R)-2-(3-(4-((1H-indazol-5-yl)amino)pyrimidin-2-yl)phenoxy)-N-(pyrrolidin-3-yl)acetamide HCl salt]
- IC50 (ROCK1 [6]): 1770 nM
- Ki (ROCK1 [6]): 70 nM

SMILES: CC(C)NCCOc1cccc(-c2nccc(Nc3ccc4[nH]ncc4c3)n2)c1 [Example 154, N-(2-(3-(2-(isopropylamino)ethoxy)phenyl)pyrimidin-4-yl)-1H-indazol-5-amine]
- bleeding (post operative rebleed) [7]: reduced
- macular edema [7]: reduced

The remaining lines, values ahead:

- IC50 (ROCK1 [1]): > 10000 nM
- IC50 (ROCK2; [8]): > 10000 nM
SMILES: CC(C)NC(=O)COc1cccc(-c2nc(Nc3ccc4[nH]ncc4c3)cc(C(F)(F)F)n2)c1 [Example 169]

- IC50 (ROCK1 [1]): 1930 nM
- IC50 (ROCK2; [8]): 58 nM
SMILES: c1cc(OCCN2CCOCC2)cc(-c2nccc(Nc3ccc4[nH]ncc4c3)n2)c1 [Example 144, N-(2-(3-(2-morpholinoethoxyl)phenyl)pyrimidin-4-yl)-1H-indazol-5-amine]

- IC50 (ROCK1 [1]): 1980 nM
- IC50 (ROCK2; [8]): 8 nM
SMILES: COCCOc1cccc(-c2nccc(Nc3ccc4[nH]ncc4c3)n2)c1 [Example 138, N-(2-(3-(2-methoxyethoxyl)phenyl)pyrimidin-4-yl)-1H-indazol-5-amine]

- IC50 (ROCK1 [1]): 1910 nM
- IC50 (ROCK2; [8]): 55 nM
SMILES: COc1cccc(-c2nccc(Nc3ccc4[nH]ncc4c3)n2)c1 [Example 140, N-(2-(3-methoxyphenyl)pyrimidin-4-yl)-1H-indazol-5-amine]

- IC50 (ROCK1 [1]): > 2000 nM
- IC50 (ROCK2; [8]): > 5500 nM
SMILES: CC(N)c1cccc(-c2nccc(Nc3ccc4[nH]ncc4c3)n2)c1 (centres unmarked) [Example 147, N-(2-(3-(1-aminoethyl)phenyl)pyrimidin-4-yl)-1H-indazol-5-amine]
